In patent publication US5739112A, “Inhibitors of factor Xa” (Corvas International, Inc., priority 1995, dated 1998):
Numbered stars: 1 amine (or outer) side, 2 acyl side, 3 side chain; on linkers, the order of the positions; unused ones are H or OH. Square brackets hold non-standard residues; d marks the D form. Peptide text beside a SMILES is read from it. * marks the point of attachment. 1Nal = N[C@@H](Cc1cccc2ccccc12)C(=O)O; 2Nal = N[C@@H](Cc1ccc2ccccc2c1)C(=O)O; d2Nal = N[C@H](Cc1ccc2ccccc2c1)C(=O)O; dPhg = N[C@@H](C(=O)O)c1ccccc1; Suc = O=C(CCC(=O)[*:2])[*:1]; Boc = CC(C)(C)OC(=O)*

Legend:
[1] = target: T1, Human factor Xa (Homo sapiens, UniProt P00742); assay: Factor Xa assay (chromogenic substrate S-2765); format: biochemical; conditions: for IC50: 60 min preincubation at room temperature, TBSA pH 7.4; for Percent Selectivity Xa: taken as 100 by definition
T1 construct: Human factor X contains a light-chain subunit containing 139 amino acid residues; purchased Enzyme Research Laboratories
Method: (§1) To assay their activities, the compounds of the present invention are dissolved in buffer to give solutions containing concentrations ranging under assay concentrations from 0 to about 100 μM. The enzyme to be tested is then added to a solution containing a specified concentration of the test compound. Then after an incubation period, synthetic substrate for the enzyme being tested is added. The rate of substrate turnover is determined spectrophotometrically. The IC50 of the test compound is determined for each test compound in assays for factor Xa, factor XIa, thrombin and tPA. IC50 is that concentration of test compound giving 50% inhibition of the substrate turnover. Percent selectivity is used to indicate selectivity of a compound in inhibiting Factor Xa in comparison with either Factor XIa, thrombin or tPA. Percent selectivity of a particular compound for either Factor XIa, thrombin or tPA refers to a number obtained by dividing the product of one hundred and the IC50 of the compound for Factor Xa by the IC50 of the compound for either Factor XIa, thrombin or tPA.
(§2) The specificity of the peptide aldehydes through was determined by measurement of their IC50 against factor Xa, factor XIa, thrombin and tissue plasminogen activator (tPA). Peptide aldehyde which has been described in the art was run as a comparison. A specific concentration of enzyme and its substrate were challenged with varying concentrations: of inhibitor. IC50 is that concentration of inhibitor giving 50% inhibition of catalytic activity, under the assay conditions Specific assay procedures used are presented below.
Enzyme activity was determined using as substrate, S2765 (N-a-benzyloxycarbonyl-D-argininyl-L-glycyl-L-arginine-p-nitroanilide dihydrochloride) which was obtained from Kabi Diagnostica. The substrate was made up in deionized water prior to use.
Human factor Xa was obtained from Enzyme Research Laboratories. The enzyme was diluted into TBSA prior to use.
(§3) The assay was run by combining in appropriate wells 50 μL of TBSA, 50 μL of inhibitor in TBSA or TBSA (as negative control) and 50 μL of 2 nM human Factor Xa or TBSA (as background control). After incubating this mixture for 60 minutes at room temperature, 50 μL of 1 mM S-2765 was added to each well and the initial rate of the change of the optical density at 405 nm (OD405 nm) for each well was determined. OD405 nm was measured every 10 seconds for 5 minutes.

[2] = target: T2, Human factor XIa (Homo sapiens, UniProt P03951); assay: Factor XIa assay (chromogenic substrate S-2366); format: biochemical; conditions: for Percent Selectivity XIa: 100 times IC50 for factor Xa divided by IC50 for factor XIa; for IC50: 60 min preincubation at room temperature, >25 means less than 50% inhibition at 25 μM
T2 construct: purchased Enzyme Research Laboratories, Inc
Method: as §1, §2
Enzyme activity was determined using as substrate, S2366 (L-pyroglutamyl-L-prolyl-L-arginine-p-nitroanilide hydrochloride) which was obtained from Kabi Diagnostica. The substrate was made up in deionized water prior to use.
Human factor XIa was obtained from Enzyme Research Laboratories, Inc. The enzyme was diluted into TBSA prior to use.
as §3, with “Factor Xia” for “Factor Xa”, “of 6” for “of 1”, “mM S-2366” for “mM S-2765”

[3] = target: T3, Human recombinant t-PA (Activase) (Homo sapiens, UniProt P00750); assay: tPA assay (substrate Pefachrome tPA); format: biochemical; conditions: for Percent Selectivity tPA: 100 times IC50 for factor Xa divided by IC50 for tPA; for IC50: 60 min preincubation at room temperature, >25 means less than 50% inhibition at 25 μM
T3 construct: purchased Genentech, Inc. Activase
Method: as §1, §2
Enzyme activity was determined using as substrate, Pefachrome tPA (O-methylsulfonate-D-hexahydrotyrosine-L-glycyl-L-argini ne-p-nit roanilide acetate salt) which was obtained from Centerchem, Inc. The substrate was made up in deionized water prior to use.
Human recombinant t-PA (Activase®) was obtained. from Genentech, Inc. The enzyme was reconstituted with water, then diluted into TBSA prior to use.
The assay was run by combining in appropriate wells 50 μL of TBSA, 50 μL of inhibitor in TBSA or TBSA (as negative control) and 50 μL of 4 nM human recombinant tPA or TBSA (as background control). After incubating this mixture for 60 minutes at room temperature, 50 μL of 4 mM Pefachrome tPA was added to each well and the initial rate of the change of optical density at 405 nm (OD405 nm) for each well was determined. OD405 nm was measured every 10 seconds for 5 minutes.

[4] = target: T4, Human α-thrombin (Homo sapiens, UniProt P00734); assay: Thrombin assay (chromogenic substrate S-2238); format: biochemical; conditions: for Percent Selectivity Thrombin: 100 times IC50 for factor Xa divided by IC50 for thrombin; for IC50: 60 min preincubation at room temperature, >25 means less than 50% inhibition at 25 μM
T4 construct: purchased Enzyme Research Laboratories, Inc
Method: as §1, §2
Enzyme activity was determined using as substrate, S2238 (D-phenylalanyl-L-pipecolyl-L-arginine-p-nitroanilide dihydrochloride) which was obtained from Kabi Diagnostica. The substrate was made up in deionized water prior to use.
Human α-thrombin was obtained from Enzyme Research Laboratories, Inc. The enzyme was diluted into TBSA prior to use.
The assay was run by combining in appropriate wells 50 μL of TBSA, 50 μL of inhibitor in TBSA or TBSA (as negative control) and 50 μL of 4 nM human α-thrombin or TBSA (as background control). After incubating this mixture for 60 minutes at room temperature, 50 μL of 0.24 mM S-2238 was added to each well and the initial rate of the change of optical density at 405 nm (OD405 nm) for each well was determined. OD405 nm was measured every 10 seconds for 5 minutes.

[5] = target: human thrombin (Homo sapiens, UniProt P00734); conditions: Hitomi et al., p. 166; read-out: inhibitor constant, human thrombin; cited from earlier work
[6] = target: T1, Human factor Xa; conditions: Hitomi et al., p. 166; read-out: inhibitor constant, human factor Xa; cited from earlier work

T1 sequence (P00742 235-488 limits assumed): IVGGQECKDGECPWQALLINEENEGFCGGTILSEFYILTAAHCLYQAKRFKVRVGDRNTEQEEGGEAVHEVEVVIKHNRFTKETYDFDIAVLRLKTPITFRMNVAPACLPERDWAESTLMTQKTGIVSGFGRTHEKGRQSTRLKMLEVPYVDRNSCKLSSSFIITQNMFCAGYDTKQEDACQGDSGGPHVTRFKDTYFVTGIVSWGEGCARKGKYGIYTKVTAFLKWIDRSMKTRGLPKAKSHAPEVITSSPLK
T1 sequence (P00742 41-179 partner limits assumed): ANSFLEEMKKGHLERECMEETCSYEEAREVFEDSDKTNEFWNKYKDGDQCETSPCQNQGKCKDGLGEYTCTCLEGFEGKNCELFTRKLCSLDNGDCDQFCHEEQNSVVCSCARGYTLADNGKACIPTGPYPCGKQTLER
T2 sequence (P03951 388-625 limits assumed): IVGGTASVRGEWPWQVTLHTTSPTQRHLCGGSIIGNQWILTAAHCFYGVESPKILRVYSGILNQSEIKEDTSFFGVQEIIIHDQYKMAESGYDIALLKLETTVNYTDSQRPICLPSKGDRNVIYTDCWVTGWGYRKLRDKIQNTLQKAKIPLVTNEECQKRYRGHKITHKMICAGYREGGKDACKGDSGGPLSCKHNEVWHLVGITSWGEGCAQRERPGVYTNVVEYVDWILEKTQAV
T2 sequence (P03951 19-387 partner limits assumed): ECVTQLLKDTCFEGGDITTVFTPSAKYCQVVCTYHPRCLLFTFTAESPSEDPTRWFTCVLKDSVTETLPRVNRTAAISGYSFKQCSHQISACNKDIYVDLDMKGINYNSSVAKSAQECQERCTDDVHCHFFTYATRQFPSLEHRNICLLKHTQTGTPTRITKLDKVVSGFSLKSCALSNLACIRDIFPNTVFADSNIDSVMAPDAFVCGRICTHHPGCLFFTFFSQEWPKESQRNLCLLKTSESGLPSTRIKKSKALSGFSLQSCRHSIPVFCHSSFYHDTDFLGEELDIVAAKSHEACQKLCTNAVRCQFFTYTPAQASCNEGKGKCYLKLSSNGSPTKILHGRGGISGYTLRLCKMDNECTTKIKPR
T3 sequence (P00750 36-562): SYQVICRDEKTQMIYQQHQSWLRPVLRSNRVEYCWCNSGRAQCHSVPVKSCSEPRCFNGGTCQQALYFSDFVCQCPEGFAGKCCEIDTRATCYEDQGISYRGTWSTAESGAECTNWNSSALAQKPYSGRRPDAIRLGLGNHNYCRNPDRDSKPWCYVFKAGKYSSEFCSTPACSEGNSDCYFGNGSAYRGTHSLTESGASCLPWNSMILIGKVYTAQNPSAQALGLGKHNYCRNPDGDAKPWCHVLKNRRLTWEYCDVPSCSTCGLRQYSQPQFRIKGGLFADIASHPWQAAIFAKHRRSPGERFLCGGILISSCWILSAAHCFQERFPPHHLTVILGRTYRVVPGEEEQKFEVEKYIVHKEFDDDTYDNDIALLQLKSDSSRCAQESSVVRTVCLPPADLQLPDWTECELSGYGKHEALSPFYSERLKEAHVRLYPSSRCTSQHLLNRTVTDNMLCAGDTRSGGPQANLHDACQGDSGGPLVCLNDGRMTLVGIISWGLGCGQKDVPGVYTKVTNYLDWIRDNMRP

| Compound | IC50 [1] | Percent Selectivity Xa [1] | Percent Selectivity XIa [2] | IC50 [2] | Percent Selectivity tPA [3] | IC50 [3] | Percent Selectivity Thrombin [4] | IC50 [4] | Ki [5] | Ki [6] |
| --- | --- | --- | --- | --- | --- | --- | --- | --- | --- | --- |
| CC(C)(C)OC(=O)N[C@H](Cc1ccccc1)C(=O)N1CC[C@H](c2ccccc2)[C@H]1C(=O)N[C@H](C=O)CCCNC(=N)N (relative stereo) [[10], N-t-butoxycarbonyl-D-phenylalanyl-L-(3-trans-phenyl)prolinyl-L-argininal] | 0.625 µM | 100 | < 2.5 | > 25 µM | < 2.5 | > 25 µM | < 2.5 | > 25 µM |  |  |
| N=C(N)c1ccc2cc(OC(=O)c3ccc(N=C(N)N)cc3)ccc2c1 [FUT-75, 6-amidino-2-naphthyl-p-guanidinobenzoate dimethanesulfonate] |  |  |  |  |  |  |  |  | 1.3 µM | 4.1 µM |
| CC(C)(C)OC(=O)N[C@H](Cc1ccc2ccccc2c1)C(=O)N[C@@H](Cc1ccccc1)C(=O)N[C@H](C=O)CCCNC(=N)N [[1], N-t-butoxycarbonyl-D-3-(2-naphthyl)alanyl-L-phenylalanyl-L-argininal] (Boc-[d2Nal]-Phe-Arg-aldehyde) | 0.22 µM | 100 | 1.4 | 16 µM | < 0.9 | > 25 µM | 1.6 | 14 µM |  |  |
| CC(C)(C)OC(=O)N[C@@H](C(=O)N[C@@H](Cc1ccccc1)C(=O)N[C@H](C=O)CCCN=C(N)N)c1ccccc1 [[2], N-t-Butoxycarbonyl-D-2-Phenylglycyl-L-phenylalanyl-L-Arainial] (Boc-[dPhg]-Phe-Arg-aldehyde) | 0.64 µM | 100 | 4.9 | 13 µM | < 2.6 | > 25 µM | < 2.6 | > 25 µM |  |  |
| CC(C)(C)OC(=O)N[C@H](Cc1ccccc1)C(=O)N[C@@H](Cc1ccc2ccccc2c1)C(=O)N[C@H](C=O)CCCNC(=N)N [[3], N-t-butoxycarbonyl-D-phenylalanyl-L-3-(2-naphthyl)alanyl-L-argininal] (Boc-[dF]-[2Nal]-Arg-aldehyde) | 0.89 µM | 100 | 3.6 | 25 µM | < 3.6 | > 25 µM | 3.6 | 25 µM |  |  |
| CC(C)(C)OC(=O)N[C@H](Cc1ccccc1)C(=O)N[C@@H](Cc1ccccc1)C(=O)N[C@H](C=O)CCCNC(=N)N [[4], N-t-butoxycarbonyl-D-phenylalinyl-L-phenylalinyl-L-argininal] (Boc-[dF]-Phe-Arg-aldehyde) | 0.21 µM | 100 | 0.8 | 25 µM | < 0.8 | > 25 µM | < 0.8 | > 25 µM |  |  |
| CC(C)(C)OC(=O)N[C@H](Cc1ccccc1)C(=O)N[C@@H](Cc1cccc2ccccc12)C(=O)N[C@H](C=O)CCCNC(=N)N [[5], N-t-butoxycarbonyl-D-phenylalanyl-L-3-(1-naphthyl)alanyl-L-argininal] (Boc-[dF]-[1Nal]-Arg-aldehyde) | 0.03 µM | 100 | 0.2 | 14 µM | < 0.1 | > 25 µM | 0.2 | 13 µM |  |  |
| CC(=O)N[C@H](Cc1ccccc1)C(=O)N[C@@H](Cc1cccc2ccccc12)C(=O)N[C@H](C=O)CCCNC(=N)N [[6], N-acetyl-D-phenylalanyl-L-3-(1-naphthyl)alanyl-L-argininal] (Ac-[dF]-[1Nal]-Arg-aldehyde) | 0.025 µM | 100 | 7.8 | 0.32 µM | < 0.1 | > 25 µM | < 0.1 | > 25 µM |  |  |
| CC(C)(C)OC(=O)NC(C(=O)N[C@@H](Cc1cccc2ccccc12)C(=O)N[C@H](C=O)CCCNC(=N)N)c1ccc(-c2ccccc2)cc1 (stereo partly drawn) [[7], N-t-butoxycarbonyl-D,L-(α-biphenyl)glycyl-L-3-(1-naphthyl)alanyl-L-argininal] | 2.5 µM | 100 | < 10 | > 25 µM | < 10 | > 25 µM | < 10 | > 25 µM |  |  |
| N=C(N)NCCC[C@@H](C=O)NC(=O)[C@H](Cc1cccc2ccccc12)NC(=O)[C@@H](Cc1ccccc1)NC(=O)CCC(=O)O [[8], N-succinyl-D-phenylalanyl-L-3-(1-naphthyl)alanyl-L-argininal] (Suc-[dF]-[1Nal]-Arg-aldehyde) | 0.023 µM | 100 | 0.12 | 20 µM | < 0.1 | > 25 µM | < 0.1 | > 25 µM |  |  |
| CC(C)CCC(=O)N[C@H](Cc1ccccc1)C(=O)N[C@@H](Cc1cccc2ccccc12)C(=O)N[C@H](C=O)CCCNC(=N)N [[9]] | 0.17 µM | 100 | < 0.68 | > 25 µM |  |  | < 0.68 | > 25 µM |  |  |
| CC(C)(C)OC(=O)N[C@H](Cc1ccccc1)C(=O)N1CCC[C@H]1C(=O)N[C@H](C=O)CCCNC(=N)N [[23], N-Boc-D-phenylalanyl-L-prolyl-L-argininal, reference compound] | 5.7 µM | 100 | 317 | 1.8 µM | 518 | 1.1 µM | 22,800 | 0.025 µM |  |  |
